Measured values reported in ChEMBL document CHEMBL3046773 (Med Chem Res, 2013).

Target: Voltage-dependent L-type calcium channel subunit alpha-1C (Cavia porcellus, UniProt O35505)
Test: Antagonist activity at calcium channel in Cavia porcellus (guinea pig) ileum assessed as inhibition of KCl-induced muscle contraction at 10 mM; call rule not given here
Type: tissue-based

Voltage-dependent L-type calcium channel subunit alpha-1C, sequence (O35505 whole entry): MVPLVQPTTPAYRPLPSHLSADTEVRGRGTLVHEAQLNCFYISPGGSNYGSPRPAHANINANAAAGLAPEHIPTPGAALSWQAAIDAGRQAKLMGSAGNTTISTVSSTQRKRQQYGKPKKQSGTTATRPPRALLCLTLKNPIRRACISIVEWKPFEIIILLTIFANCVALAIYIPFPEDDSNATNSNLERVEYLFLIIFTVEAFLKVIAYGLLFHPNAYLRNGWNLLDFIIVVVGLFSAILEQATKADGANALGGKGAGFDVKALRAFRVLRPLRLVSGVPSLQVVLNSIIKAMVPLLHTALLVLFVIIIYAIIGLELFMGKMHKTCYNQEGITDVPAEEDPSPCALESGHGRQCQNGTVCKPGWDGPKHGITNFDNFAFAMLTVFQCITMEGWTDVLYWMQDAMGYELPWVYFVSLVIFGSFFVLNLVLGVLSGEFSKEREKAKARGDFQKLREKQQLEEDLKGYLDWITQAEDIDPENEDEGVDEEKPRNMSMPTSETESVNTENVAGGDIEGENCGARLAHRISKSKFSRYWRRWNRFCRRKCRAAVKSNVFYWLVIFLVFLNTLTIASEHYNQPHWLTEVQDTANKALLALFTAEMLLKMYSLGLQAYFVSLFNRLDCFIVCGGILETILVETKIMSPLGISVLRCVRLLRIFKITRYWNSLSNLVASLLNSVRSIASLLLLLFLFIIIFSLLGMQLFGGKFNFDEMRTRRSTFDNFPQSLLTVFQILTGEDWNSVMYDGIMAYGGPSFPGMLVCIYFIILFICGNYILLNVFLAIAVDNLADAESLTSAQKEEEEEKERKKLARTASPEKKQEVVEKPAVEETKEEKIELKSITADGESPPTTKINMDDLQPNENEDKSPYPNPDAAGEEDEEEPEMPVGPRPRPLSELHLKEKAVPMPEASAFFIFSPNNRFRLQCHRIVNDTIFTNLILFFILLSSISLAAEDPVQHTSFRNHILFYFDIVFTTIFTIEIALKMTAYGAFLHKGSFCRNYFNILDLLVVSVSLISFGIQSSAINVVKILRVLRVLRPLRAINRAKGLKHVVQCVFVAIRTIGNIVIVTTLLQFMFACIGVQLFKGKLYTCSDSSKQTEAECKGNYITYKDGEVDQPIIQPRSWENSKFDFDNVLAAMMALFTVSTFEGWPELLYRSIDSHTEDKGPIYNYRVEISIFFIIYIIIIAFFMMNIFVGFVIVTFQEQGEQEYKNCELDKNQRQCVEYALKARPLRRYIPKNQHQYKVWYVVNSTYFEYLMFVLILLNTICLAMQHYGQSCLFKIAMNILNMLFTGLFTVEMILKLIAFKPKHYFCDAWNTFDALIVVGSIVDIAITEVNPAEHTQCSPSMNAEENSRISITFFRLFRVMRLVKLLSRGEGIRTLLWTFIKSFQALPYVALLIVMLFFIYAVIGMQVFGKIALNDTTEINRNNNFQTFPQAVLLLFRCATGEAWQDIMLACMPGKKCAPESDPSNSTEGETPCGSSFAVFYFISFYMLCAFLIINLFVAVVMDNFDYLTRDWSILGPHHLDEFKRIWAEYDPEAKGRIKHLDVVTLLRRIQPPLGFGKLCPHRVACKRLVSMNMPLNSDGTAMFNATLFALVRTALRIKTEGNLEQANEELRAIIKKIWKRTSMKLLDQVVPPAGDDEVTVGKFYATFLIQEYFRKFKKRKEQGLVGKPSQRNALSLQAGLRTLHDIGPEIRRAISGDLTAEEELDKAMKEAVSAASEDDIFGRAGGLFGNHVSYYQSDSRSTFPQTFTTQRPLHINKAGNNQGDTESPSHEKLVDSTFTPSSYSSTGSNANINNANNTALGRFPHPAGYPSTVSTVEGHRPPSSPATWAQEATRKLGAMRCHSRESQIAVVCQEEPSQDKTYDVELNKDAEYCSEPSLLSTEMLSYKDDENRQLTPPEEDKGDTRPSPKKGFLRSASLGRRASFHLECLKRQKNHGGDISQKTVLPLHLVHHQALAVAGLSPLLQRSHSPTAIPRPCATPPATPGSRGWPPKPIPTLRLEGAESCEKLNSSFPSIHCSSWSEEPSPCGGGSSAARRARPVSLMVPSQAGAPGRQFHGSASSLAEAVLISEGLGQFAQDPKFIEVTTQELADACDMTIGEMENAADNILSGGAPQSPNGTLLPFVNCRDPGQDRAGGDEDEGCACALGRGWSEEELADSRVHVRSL

COC(=O)C1=C(C)NC(C)=C(C(=O)OC)C1c1ccccc1[N+](=O)[O-] [NIFEDIPINE]
inhibition (INH): Active
